From patent US20070049627A1, “Treating vulvodynia using prodrugs of GABA analogs” (priority 2005, published 2007)
Where two headings read alike, the source gives them in different places.

What was measured:
[1] = in vivo, po
[2] = Randomized, crossover, fed/fasted single-dose pharmacokinetic study of oral sustained release tablets of compound (3); type: in vivo, human; details: for AUC of compound (3) in blood as percent of corresponding AUC of gabapentin in blood / maximum intact compound (3) concentration as percent of corresponding peak gabapentin concentration: sustained release tablets oral
Experimental: A randomized, crossover, fed/fasted single-dose study of the safety, tolerability, and pharmacokinetics of oral administration of 1-{[(α-isobutanoyloxyethoxy)carbonyl]aminomethyl}-1-cyclohexane acetic acid (3) in healthy adult subjects was conducted. The oral sustained release dosage form of Example 6 was used in this study. The study was designed to evaluate the performance of this formulation in humans in comparison with the commercial gabapentin capsule formulation (Neurontin®, Pfizer). Twelve healthy adult volunteers (7 males and 5 females) participated in the study. Mean body weight was 75.6 kg. All subjects received two different treatments in a random order with a one-week washout between treatments. The two treatments were: (A) a single oral dose of Example 1 tablets (2×600 mg) after an overnight fast; and (B) a single oral dose of Example 1 tablets (2×600 mg) after a high fat breakfast.
Blood and plasma samples were collected from all subjects prior to dosing, and at 0.5, 1, 1.5, 2, 3, 4, 6, 8, 12, 18, 24, and 36 hours after dosing. Urine samples were collected from all subjects prior to dosing, and complete urine output was obtained at the 0-4 h, 4-8 h, 8-12 h, 12-18 h, 18-24 h, and 24-36 h intervals after dosing. Blood samples were quenched immediately with methanol and stored frozen at […]. Sample aliquots were prepared for analysis of gabapentin and compound (3) using sensitive and specific LC/MS/MS methods.

[3] = system: patients suffering from chronic vulvar pain; details: increasing amounts of gabapentin over 12 weeks, cited from earlier work
[4] = Tmax of immediate release formulations following oral administration; details: in vivo
[5] = typical value used for comparison; cited from earlier work
[6] = sustained release tablets 2×600 mg oral, fasted subjects
[7] = sustained release tablets 2×600 mg oral, fed subjects

Row | SMILES | Tmax [1] [h] | Cmax of gabapentin in blood ([2]; healthy adults, single oral dose sustained release tablets 2×600 mg, after a high fat breakfast) [ng/mL] | mean±SD Cmax for gabapentin in blood ([2]; healthy adults, single oral dose sustained release tablets 2×600 mg, fasted) [ng/mL] | AUC of gabapentin in blood ([2]; healthy adults, sustained release tablets 2×600 mg oral, after a high fat breakfast) [ng·h/mL] | mean±SD AUC for gabapentin in blood ([2]; healthy adults, sustained release tablets 2×600 mg oral, fasted) [ng·h/mL] | apparent terminal elimination half-life for gabapentin in blood [2, 6] [h] | gabapentin Tmax (time to peak blood levels) [2, 6] [h] | percent of the gabapentin dose recovered in urine [2, 6] [%] | apparent terminal elimination half-life for gabapentin in blood [2, 7] [h] | percent of the gabapentin dose recovered in urine [2, 7] [%] | increase of exposure to gabapentin in the presence of food compared to fasted subjects ([2]; sustained release tablets 2×600 mg oral, fed vs fasted) [%] | gabapentin Tmax (time to peak blood levels) ([2]; sustained release tablets 2×600 mg oral, in the presence of food) [h] | AUC of compound (3) in blood as percent of corresponding AUC of gabapentin in blood ([2]; fasted subjects) [%] | maximum intact compound (3) concentration as percent of corresponding peak gabapentin concentration ([2]; fasted subjects) | AUC of compound (3) in blood as percent of corresponding AUC of gabapentin in blood ([2]; fed subjects) [%] | maximum intact compound (3) concentration as percent of corresponding peak gabapentin concentration ([2]; fed subjects) | patients with partial or complete relief of vulvar pain symptoms ([3]; amitriptyline non-responders) | patients reporting side effects such as headaches, nausea, vomiting, fatigue, and dizziness [3] | Tmax [4] [h] | typical Tmax of immediate release gabapentin [5] [h]
1 | CC(OC(=O)NCC1(CC(=O)O)CCCCC1)OC(=O)C(C)C (stereo not drawn) [compound (3), 1-{[(α-Isobutanoyloxyethoxy)carbonyl]aminomethyl}-1-Cyclohexane Acetic Acid] | 2 to 2.6 | 6240 ± 1550 | 4210 ± 1150 | 83000 ± 21800 | 54500 ± 12200 | 6.47 ± 0.77 | 5.08 ± 1.62 | 46.5±15.8 | 5.38 ± 0.80 | 73.7±7.2 | 52 | 8.40 ± 2.07 | 0.3 | approximately 1.0% | < 0.1 | approximately 0.3% | – | – | – | –
2 | NCC1(CC(=O)O)CCCCC1 [gabapentin] | – | – | – | – | – | – | – | – | – | – | – | – | – | – | – | – | Eighty-two | over half the patients | 2.8 to 3.3 | 2 to 4
